Measured values reported in paper PMC3359661, “FK228 Analogues Induce Fetal Hemoglobin in Human Erythroid Progenitors” (Anemia, 2012).

Tested on: γ-globin promoter activity in KU812-γF/βR stable lines
Assay: KU812 dual-luciferase reporter stable lines (μLCRβprRluc AγprFluc), γ-globin promoter activity
Format: cell-based, human
Settings: 48 hr; for Fold change (γ/γ + 2β): untreated normalized to one
Source text: KU812 stable cell lines were created by co-transfecting wild-type KU812 cells with pEGFP-NI (G418 selectable marker) and theμLCRβ prRluc ^A γ prFluc dual-reporter a kind gifts from Dr. George Stamatoyannopoulos (University of Washington). […] Likewise, 1.4 kb of human Aγ-globin promoter was inserted upstream of firefly luciferase to create ^A γ prFluc. The μLCR (locus control region), Pβ prRluc, and ^A γ prFluc fragments were subsequently cloned into the mammalian vector, pRL-null.
After 72 hr, G418 was added at a concentration of […] for 3 days then maintained under selection pressure indefinitely at a concentration of […]. KU812 stable lines were treated with the various drugs at the same concentrations described above. FK228 and analogues were screened at concentrations between 1–1000 nM for 48 hr and cell toxicity was monitored by 2% Trypan blue exclusion. The effect of drug treatments on γ-globin and β-globin promoter activity was monitored by luciferase assay.
Luciferase activity was monitored under the different experimental conditions using the Dual Luciferase Assay Reporter System (Promega, Madison, WI). The activity of firefly luciferase represents γ-globin promoter activity (γF), while the renilla luciferase is the read-out for β-globin promoter activity (βR). The β-globin promoter was strategically cloned between the LCR and γ-globin promoter to increase β expression, while simultaneously increasing the sensitivity of detection of γ-globin gene inducers.
After drug treatments, KU812 stable cells were washed with 1X phosphate buffered saline and lysed in 1X Passive Lysis Buffer for 15 min, then protein extracts were added to the Luciferase Assay Reagent II and firefly luciferase activity quantified in a Turner Designs TD-20/20 luminometer (Sunnyvale, CA). To measure βR activity, Stop & Glo Reagents was added to measure the renilla luciferase activity. Total protein was determined by Bradford assay on a Beckman DU 640 spectrophotometer (Chaska, MN) and luciferase activity was corrected for total protein.
Subsequently, three independent dual-luciferase reporter KU812 stable cell lines were established to analyze the ability FK228 analogues to induce γ-globin promoter activity without an effect on β-globin transcription. […] Since the firefly luciferase gene (γF) has approximately […] luminescence than the renilla gene (βR), the renilla activity was multiplied by two to adjust for the difference in luminescence yielding the γ/γ+2β final measurement. The FK228 analogues were examined at concentrations ranging from 1–1000 nM in the three stable lines. After 48-hour treatments, cells were harvested and protein isolated for luciferase activity using the Dual Luciferase Reporter Assay.

FK228
γ/γ + 2β Mean (Line 1, firefly (γ) / renilla (β) luciferase corrected for total protein, mean, conc: Cys 10 mM, Hemin 50 μM, SAHA 2000 nM, FK228 1.5 nM, 1127Ox 1000 nM, JMA1 1.5 nM, JMA2 1.0 nM, JMA12 1000 nM, JMA26 500 nM, JMA33 1000 nM, JMA112 100 nM, untreated 0.0402): 0.1197
Fold change (γ/γ + 2β) (Line 1, concentrations as in E1): 2.975
γ/γ + 2β Mean (Line 2, concentrations as in E1, untreated 0.1573): 0.6167
Fold change (γ/γ + 2β) (Line 2, concentrations as in E1): 3.929
γ/γ + 2β Mean (Line 3, concentrations as in E1, untreated 0.0721): 0.1583
Fold change (γ/γ + 2β) (Line 3, concentrations as in E1): 2.194
